# According to patent US8835644B2, “Broad spectrum benzothiophene-nitrothiazolide and other antimicrobials” (University of Virginia Patent Foundation, priority 2009, dated 2014):
# Where two headings read alike, the source gives them in different places.
# Assays:
# C. difficile = assay: Disk diffusion (Kirby Bower), C. difficile; format: cell-based, Clostridium difficile; settings: zone of inhibited growth as relative ratio to the zone for NTZ
# Protocol: (§1) A standard broth dilution protocol was used in 96 well microplates containing a standard dilution of the microorganism to be tested in 100 microliters of the appropriate medium. Appropriate medium: E. coli, LB medium; Staphylococcus strains, Trypticase Soy; and for H. pylori and C. jejuni, Brain Heart Infusion. The compounds to be tested were set at 32 μg/ml in 200 microliters in well one and then serially diluted to provide a range from 32 to 0.06. The wells were scored visually at 24 h. The well where there was no growth was recorded as the MIC. Clostridium difficile was tested by agar diffusion and disk diffusion (Kirby Bower) methods under anaerobic conditions on Wilkins Chalgrin agar. In these assays, zone of inhibited growth was measured and compared by relative ratio to the zone recorded for NTZ.
# (§2) Representative compounds of the invention were tested in a series of assays against a series of organisms as described above. […] The organisms tested include, C. difficile, H. pylori, C. jejuni, MRSA, S. epidermidis, and E. coli. S. epidermidis and E. coli were tested in the plank and biofilm assay. A disk diffusion assay was also used for C. difficile. Direct PFOR enzyme assays were also performed. All analogues and derivatives were not tested on every organism in every type of assay (the “-” in each table means that it was not tested).
# E. coli = assay: MIC testing by broth dilution, E. coli plank; format: cell-based, Escherichia coli
# Protocol: as §1, §2
# C. jejuni = assay: MIC testing by broth dilution, C. jejuni; format: cell-based, Campylobacter jejuni
# Protocol: as §1, §2
# MRSA = assay: MIC testing by broth dilution, MRSA; format: cell-based, Staphylococcus aureus
# Protocol: as §1, §2
# S. epidermidis = assay: MIC testing by broth dilution, S. epidermidis plank; format: cell-based, Staphylococcus epidermidis
# Protocol: as §1, §2
# H. pylori = assay: MIC testing by broth dilution, H. pylori; format: cell-based, Helicobacter pylori
# Protocol: as §1, §2
# E. coli biofilm = E. coli biofilm assay (activity tables); format: cell-based, Escherichia coli; settings: biofilm; read-out: MIC (μM) E. coli Biofilm
# Protocol: A quantitative biofilm assay was used to determine the effect of NTZ on biofilm formation (41). Strain 042 was grown overnight at 37° C. with shaking and inoculated 1:100 in 200 μl culture medium in Costar 96-well, flat-bottom, polystyrene microtiter plates containing appropriate concentrations of NTZ. Plates were incubated statically at 37° C. in a humidified incubator. At 24 h, bacterial growth was measured by either transferring […] aliquots to another microtiter plate to determine turbidity or by diluting 100 μl aliquots 1:100 in 9.9 ml PBS for quantitative plate counts on LB medium. Bacterial counts in triplicate are reported as cfu/ml. Biofilm was visualized following staining with 0.5% crystal violet (41) and the absorbance was read at 570 nm using a microplate reader (Molecular Dynamics). All experiments were in triplicate and reported as mean and standard deviation.
# as §1, §2
# [1] = broth dilution, LB medium, 24 h, read-out: MIC (μM) E. coli Plank
# [2] = broth dilution, Brain Heart Infusion, 24 h, read-out: MIC (μM) C. jejuni
# [3] = broth dilution, Trypticase Soy, 24 h, read-out: MIC (μM) MRSA
# [4] = broth dilution, Trypticase Soy, 24 h, read-out: MIC (μM) S. epidermidis Plank
# [5] = broth dilution, Brain Heart Infusion, 24 h, read-out: MIC (μM) H. pylori
# [6] = planktonic, Furan analogues table, read-out: MIC E. coli Plank
# [7] = Furan analogues table, read-out: MIC C. jejuni
# [8] = Furan analogues table, read-out: MIC MRSA
# [9] = planktonic, Furan analogues table, read-out: MIC S. epidermidis Plank
# [10] = Furan analogues table, read-out: MIC H. pylori
# [11] = planktonic, Thiophene analogues table, read-out: MIC E. coli Plank
# [12] = Thiophene analogues table, read-out: MIC C. jejuni
# [13] = Thiophene analogues table, read-out: MIC MRSA
# [14] = planktonic, Thiophene analogues table, read-out: MIC S. epidermidis Plank
# [15] = Thiophene analogues table, read-out: MIC H. pylori
Compound,MIC (E. coli; [1]),MIC (C. jejuni; [2]),MIC (MRSA; [3]),MIC (S. epidermidis; [4]),MIC (H. pylori; [5]),further results
O=C(Nc1ncc([N+](=O)[O-])s1)c1cccc(OC(F)(F)F)c1 [VPC16a1041],96.0 µM,9.0 µM,6.0 µM,12.0 µM,1.1 µM,Disk Diffusion (%) C. difficile (C. difficile): 90%
Cl.NCCCOc1ccccc1C(=O)Nc1ncc([N+](=O)[O-])s1 [VPC162102HCl],89.2 µM,8.4 µM,89.2 µM,44.6 µM,1.0 µM,Disk Diffusion (%) C. difficile (C. difficile): 74%
O=C(Nc1ncc([N+](=O)[O-])s1)c1ccc(C(F)(F)F)cc1[N+](=O)[O-] [VPC16b1016],88.3 µM,88.3 µM,88.3 µM,88.3 µM,8.3 µM,MIC (E. coli biofilm): 88.3 µM
O=C(Nc1ncc([N+](=O)[O-])s1)c1ccc(-c2cccc(Cl)c2)o1 [VPC16b1119],,,,,,MIC (E. coli; [6]): 91.5 µM; MIC (C. jejuni; [7]): 22.9 µM; MIC (MRSA; [8]): 91.5 µM; MIC (S. epidermidis; [9]): 91.5 µM; MIC (H. pylori; [10]): 1.1 µM
O=C(Nc1ncc([N+](=O)[O-])s1)c1ccc(-c2ccccc2Cl)o1 [VPC16b1118],,,,,,MIC (E. coli; [6]): 91.5 µM; MIC (C. jejuni; [7]): 11.4 µM; MIC (MRSA; [8]): 11.4 µM; MIC (S. epidermidis; [9]): 5.7 µM; MIC (H. pylori; [10]): 1.4 µM
O=C(Nc1ncc([N+](=O)[O-])s1)c1ccc(F)c(F)c1 [VPC16b1019],84.1 µM,5.3 µM,10.5 µM,28.0 µM,1.8 µM,
Cl.O=C(COc1ccccc1C(=O)Nc1ncc([N+](=O)[O-])s1)OC1CNC1 [VPC162083],77.1 µM,77.1 µM,77.1 µM,77.1 µM,24.1 µM,
Cl.NCCOc1cc([N+](=O)[O-])ccc1C(=O)Nc1ncc([N+](=O)[O-])s1 [VPC161256],82.1 µM,5.1 µM,82.1 µM,82.1 µM,1.3 µM,
COc1cc2cc(C(=O)Nc3ncc([N+](=O)[O-])s3)sc2cc1F [VPC161259],,,,,,MIC (E. coli; [11]): 90.6 µM; MIC (C. jejuni; [12]): 11.3 µM; MIC (MRSA; [13]): 11.3 µM; MIC (S. epidermidis; [14]): 11.3 µM; MIC (H. pylori; [15]): 2.1 µM
O=C(Nc1ncc([N+](=O)[O-])s1)c1ccc(-c2ccsc2)o1 [VPC16b2022],,,,,,MIC (E. coli; [6]): 99.6 µM; MIC (C. jejuni; [7]): 99.6 µM; MIC (MRSA; [8]): 99.6 µM; MIC (S. epidermidis; [9]): 99.6 µM; MIC (H. pylori; [10]): 6.2 µM
"O=C(O)COc1ccccc1C(=O)Nc1ncc([N+](=O)[O-])s1 [VPC162042, 2-(2-(5-nitrothiazol-2-ylcarbamoyl)phenoxy)acetic acid]",,,,,,"MIC (E. coli; Escherichia coli, 24 h, read-out: MIC (μM) E. coli Plank): 99 µM; MIC (C. jejuni; Campylobacter jejuni, 24 h, read-out: MIC (μM) C. jejuni): 99 µM; MIC (MRSA; Staphylococcus aureus, MRSA, 24 h, read-out: MIC (μM) MRSA): 99 µM; MIC (S. epidermidis; Staphylococcus epidermidis, 24 h, read-out: MIC (μM) S. epidermidis Plank): 99 µM; MIC (H. pylori; Helicobacter pylori, 24 h, read-out: MIC (μM) H. pylori): 49.5 µM"
O=C(Nc1ncc([N+](=O)[O-])s1)c1sccc1Cl [VPC16a1009],,,,,,MIC (E. coli; [11]): 110.5 µM; MIC (C. jejuni; [12]): 20.7 µM; MIC (MRSA; [13]): 20.7 µM; MIC (S. epidermidis; [14]): 55.2 µM; MIC (H. pylori; [15]): 5.2 µM
Cc1ccc(-c2ccc(C(=O)Nc3ncc([N+](=O)[O-])s3)o2)cc1 [VPC16b2019],,,,,,MIC (E. coli; [6]): 97.2 µM; MIC (C. jejuni; [7]): 97.2 µM; MIC (MRSA; [8]): 97.2 µM; MIC (S. epidermidis; [9]): 97.2 µM; MIC (H. pylori; [10]): 1.5 µM
Cc1cccc(-c2ccc(C(=O)Nc3ncc([N+](=O)[O-])s3)o2)c1 [VPC16b2014],,,,,,MIC (E. coli; [6]): 97.2 µM; MIC (C. jejuni; [7]): 97.2 µM; MIC (MRSA; [8]): 97.2 µM; MIC (S. epidermidis; [9]): 97.2 µM; MIC (H. pylori; [10]): 2.3 µM
CC(C)(C)OC(=O)COc1ccc(C(=O)Nc2ncc([N+](=O)[O-])s2)cc1 [VPC162036],84.3 µM,84.4 µM,84.3 µM,84.3 µM,0.5 µM,
"O=C(Nc1ncc([N+](=O)[O-])s1)c1ccc(-c2cccs2)o1 [VPC16b1145, N-(5-Nitrothiazol-2-yl)-5-(thiophen-2-yl)furan-2-carboxamide]",,,,,,"MIC (E. coli; Escherichia coli, planktonic, Furan analogues table, read-out: MIC E. coli Plank): 99.6 µM; MIC (C. jejuni; Campylobacter jejuni, Furan analogues table, read-out: MIC C. jejuni): 12.5 µM; MIC (MRSA; Staphylococcus aureus, MRSA, Furan analogues table, read-out: MIC MRSA): 12.4 µM; MIC (S. epidermidis; Staphylococcus epidermidis, planktonic, Furan analogues table, read-out: MIC S. epidermidis Plank): 12.4 µM; MIC (H. pylori; Helicobacter pylori, Furan analogues table, read-out: MIC H. pylori): 1.9 µM"
COc1ccc(-c2ccc(C(=O)Nc3ncc([N+](=O)[O-])s3)o2)cc1 [VPC16b1139],,,,,,MIC (E. coli; [6]): 92.7 µM; MIC (C. jejuni; [7]): 92.7 µM; MIC (MRSA; [8]): 92.7 µM; MIC (S. epidermidis; [9]): 92.7 µM; MIC (H. pylori; [10]): 1.5 µM
O=C(Nc1ncc([N+](=O)[O-])s1)c1ccc(F)c([N+](=O)[O-])c1 [VPC16b1017],102.5 µM,51.2 µM,76.9 µM,51.2 µM,1.6 µM,MIC (E. coli biofilm): 102.5 µM
Cn1c(C(=O)Nc2ncc([N+](=O)[O-])s2)cc2ccccc21 [VPC16b1028],105.9 µM,39.7 µM,105.9 µM,105.9 µM,1.2 µM,
O=C(Nc1ncc([N+](=O)[O-])s1)c1ccc(-c2cccs2)s1 [VPC16b2021],,,,,,MIC (E. coli; [11]): 94.8 µM; MIC (C. jejuni; [12]): 94.8 µM; MIC (MRSA; [13]): 94.8 µM; MIC (S. epidermidis; [14]): 94.8 µM; MIC (H. pylori; [15]): 3.0 µM
CC(=O)Nc1ccccc1C(=O)Nc1ncc([N+](=O)[O-])s1 [VPC162046b],111.0 µM,41.6 µM,55.5 µM,111.0 µM,6.9 µM,
O=C(Nc1ncc([N+](=O)[O-])s1)C1CC1c1ccccc1 (centres unmarked) [VPC16b1032],110.6 µM,26.6 µM,13.8 µM,13.8 µM,1.7 µM,
O=C(Cc1ccccc1)Nc1ncc([N+](=O)[O-])s1 [VPC16a1013],121.5 µM,1.8 µM,121.5 µM,22.8 µM,21.6 µM,
